Converted amounts (≈) assume the structure as drawn. “And” between values parts separate entries of the source, which are not always exact repeats. Equal values may be shown once. Read-outs that look alike come from different tables or passages of the source.
How the values were obtained:
[1] = Terminal sterilization by autoclaving, degradation of ASA; format: physicochemical; settings: autoclaving at 121° C. for 20 mins
Protocol: In yet another alternative, the first component comprises an autoclaved terminally sterilized acetyl salicylic acid particulate powder. The terminally sterilized material may be obtained by autoclaving at 121° C. for 20 mins.
Alternatively, the first component was prepared by filling acetyl salicylic acid into vials and terminally sterilizing the ASA filled vials for 20 minutes at 121° C. A skilled person would not expect that a two-component system can be based on autoclaved ASA due to an expected incompatibility with heat.

[2] = Assay and purity by HPLC on non-irradiated and gamma-irradiated ASA powder; format: physicochemical; settings: after gamma irradiation
Protocol: The packaged ASA was end-sterilized by 25 or 55 kGy using a Cobalt60 irradiation source. Inside the installation, samples are placed on a turn table which is turned a quarter to expose each sample from each side at equal amounts of irradiation. For each 1 kGy, the sample is irradiated for 10 min.
After gamma-irradiation, the samples were again analysed for sterility according to Ph. Eur. 2.6.1., which is harmonized with USP 71. Potential degradation was monitored by determining assay and purity by HPLC.
Salicylic acid levels were less than 0.05%.

[3] = Solution pH before and after addition of ASA to medium; format: physicochemical
Protocol: (§1) Prior to spray drying experiments, the solution pH of different solvents and the saturation solubility of ASA in different solvents was screened. The acidified mediums were prepared as follows:
(§2) 8.5 ml of hydrochloric acid (about 35% v/v) was transferred into 900 ml of water and diluted to 1000 ml with water. 10.0 ml of this solution was diluted to 1000 ml with water. The pH of the solution was noted.
(§3) 8.5 ml of hydrochloric acid (about 35% v/v) was transferred into 900 mL 96% ethanol and diluted to 1000 ml with water. 10.0 ml of this solution was diluted to 1000 ml with 96% ethanol. The pH of the solution was noted.
(§4) 8.5 ml of hydrochloric acid (about 35% v/v) was transferred into 900 mL Tertiary butyl alcohol and diluted to 1000 ml with Tertiary butyl alcohol. 10.0 ml of this solution was diluted to 1000 ml with 96% Tertiary butyl alcohol. The pH of the solution was noted.
(§5) 8.5 ml of hydrochloric acid (about 35% v/v) was transferred into 900 ml water and diluted to 1000 ml with water. 10.0 ml of this solution was diluted to 1000 ml with water. […] The pH of the solution was noted.
(§6) ASA has more solubility in non-aqueous media compared to aqueous media and ASA dissolves better in ethanol compared to tertiary butyl alcohol however it also has higher salicylic acid content (Tables 6 and 7). Once it is acidified the salicylic acid levels are lowered.

[4] = Saturated solubility of ASA after 1 hour shaking in a medium selection; format: physicochemical; settings: for solubility thermodynamic at 1 h: thermodynamic from solid, read-out: Individual concentration at saturation (Cs), Aspirin (A)
Protocol: as §1, §2, §3, §4, §5, §6

[5] = Reconstitution testing of ASA in buffer diluents; format: physicochemical; settings: gamma irradiated ASA
Protocol: The material produced in the radiation and spray drying experiments was tested in reconstitution studies and compared to non-sterile, crystalline acetyl salicylic acid.
The buffer systems were tested for reconstitution of 325.0 mg gamma irradiated acetyl salicylic acid powder in 5 or 10 ml reconstitution fluid. Different buffer strengths were screened. […]

[6] = cited from earlier work
[7] = buffer —, purified water Ad 10 g, 10 mL

degradation of acetyl salicylic acid [1]: no degradation | Salicylic acid levels [2]: less than 0.05% | impurities identified [2]: no impurities were identified | pH 48 hours after addition of ASA ([3]; 96% Ethanol, no prior pH adjustment (pH 7.06 before)): 3.09 | pH 48 hours after addition of ASA ([3]; Acidified 96% ethanol (pH 2.30 before)): 2.24 | pH 48 hours after addition of ASA ([3]; Acidified tert-butyl alcohol (pH 2.01 before)): 1.93 | pH 48 hours after addition of ASA ([3]; Acidified water (0.001N HCl) (pH 2.47 before)): 2.37 | pH 48 hours after addition of ASA ([3]; Acidified water + 60 g/L mannitol (pH 2.50 before)): 2.36 | pH 48 hours after addition of ASA ([3]; Milli-Q Water, no prior pH adjustment (pH 5.41 before)): 2.62 | pH 48 hours after addition of ASA ([3]; Tert-butyl alcohol, no prior pH adjustment (pH 4.89 before)): 3.40 | pH 48 hours after addition of ASA ([3]; Water + 60 g/L mannitol, no prior pH adjustment (pH 6.03 before)): 2.61 | solubility thermodynamic at 1 h ([4]; 60 g/L mannitol solution, saline or isotonic, 60 g/L mannitol, without pH adjustment): 3090 µg/mL (≈ 17.2 mM) | Individual concentration at saturation (Cs), Aspirin (A) ([4]; 60 g/L mannitol, without pH adjustment): 2.868 mg/mL and 2.484 mg/mL | Cs (mean) ([4]; Acidified 60 g/L mannitol): 1.787 mg/mL | Cs (mean) ([4]; Acidified ethanol): 142.678 mg/mL | Individual concentration at saturation (Cs), Aspirin (A) ([4]; Acidified water): 1.924 mg/mL and 1.912 mg/mL | Individual concentration at saturation (Cs), Aspirin (A) ([4]; Water, without pH adjustment): 3.429 mg/mL and 3.423 mg/mL | solubility thermodynamic at 1 h ([4]; acidified 60 g/L mannitol solution, saline or isotonic, Acidified 60 g/L mannitol): 1780 µg/mL (≈ 9.85 mM) | solubility thermodynamic at 1 h ([4]; acidified water, aqueous buffer, Acidified water): 1890 µg/mL (≈ 10.5 mM) | solubility thermodynamic at 1 h ([4]; water, Water, without pH adjustment): 3090 µg/mL (≈ 17.2 mM) | pH after reconstitution ([5]; Carbonate - NaOH 0.15M): 6.254 | 325 mg ASA dissolves? ([5]; Carbonate - NaOH 0.2M, 10 mL): YES - | pH after reconstitution ([5]; Carbonate - NaOH 0.2M, 10 mL): 9.160 | 325 mg ASA dissolves? ([5]; Carbonate - NaOH 0.25, 10 mL): YES - | pH after reconstitution ([5]; Carbonate - NaOH 0.25, 10 mL): 9.646 | Time needed to dissolve (±) ([5]; Carbonate - NaOH 0.25, 10 mL, (3 min) + <1 min): <1 min | 325 mg ASA dissolves? ([5]; Carbonate - NaOH 0.5M, 5 mL): YES - | Time needed to dissolve (±) ([5]; Carbonate - NaOH 0.5M, 5 mL): 3 min | pH after reconstitution ([5]; Carbonate - NaOH 0.5M, 5 mL): 7.534 | 325 mg ASA dissolves? ([5]; Carbonate - NaOH 1M, 5 mL): YES - | Time needed to dissolve (±) ([5]; Carbonate - NaOH 1M, 5 mL): <3 min | pH after reconstitution ([5]; Carbonate - NaOH 1M, 5 mL): 9.308 | 325 mg ASA dissolves? If yes, in 5 or 10 mL? ([5]; Carbonate-NaOH 0.025M, Ad 10 g): YES - 5 mL | Time needed to dissolve (±) ([5]; Carbonate-NaOH 0.025M, 5 mL): 0.5 min | pH after reconstitution ([5]; Carbonate-NaOH 0.025M, 5 mL): 9.233 | pH after reconstitution ([5]; NaOH 0.1M): 4.199 | 325 mg ASA dissolves? If yes, in 5 or 10 mL? ([5]; NaOH 0.25M): YES - 10 mL | pH after reconstitution ([5]; NaOH 0.25M, 10 mL): 7.099 | Time needed to dissolve (±) ([5]; NaOH 0.25M, 10 mL, (3 min) + <1 min): <1 min | 325 mg ASA dissolves? If yes, in 5 or 10 mL? ([5]; NaOH 0.3M): YES - 10 mL | Time needed to dissolve (±) ([5]; NaOH 0.3M, 10 mL, printed as (3 min) + 1 min): 1 min | 325 mg ASA dissolves? If yes, in 5 or 10 mL? ([5]; NaOH 0.4M): YES - 10 mL | pH after reconstitution ([5]; NaOH 0.4M, 10 mL): 12.103 | Time needed to dissolve (±) ([5]; NaOH 0.4M, 10 mL, (3 min) + <1 min): <1 min | 325 mg ASA dissolves? If yes, in 5 or 10 mL? ([5]; NaOH 0.5M): YES - 5 mL | Time needed to dissolve (±) ([5]; NaOH 0.5M, 5 mL): <1 min | pH after reconstitution ([5]; NaOH 0.5M, 5 mL): 7.229 | 325 mg ASA dissolves? If yes, in 5 or 10 mL? ([5]; NaOH 1M): YES - 5 mL | Time needed to dissolve (±) ([5]; NaOH 1M, 5 mL): <0.25 min | pH after reconstitution ([5]; NaOH 1M, 5 mL): 12.814 | 325 mg ASA dissolves? ([5]; TBST 1M, pH of medium 7.574, 10 mL): YES - | Time needed to dissolve (±) ([5]; TBST 1M, 10 mL): 15 min | pH after reconstitution ([5]; TBST 1M, 10 mL): 7.100 | Time needed to dissolve (±) ([5]; Tris 0.025M, Ad 10 g, volume as in the dissolves column of the same line): <1 min and 2 min | pH after reconstitution ([5]; Tris 0.1M): 4.195 | 325 mg ASA dissolves? ([5]; Tris 0.25M, pH of medium 10.701, 10 mL): YES - | pH after reconstitution ([5]; Tris 0.25M, 10 mL): 7.616 | 325 mg ASA dissolves? ([5]; Tris 0.5M, pH of medium 10.814, 5 mL): YES - | Time needed to dissolve (±) ([5]; Tris 0.5M, 5 mL): 3 min | pH after reconstitution ([5]; Tris 0.5M, 5 mL): 7.592 | 325 mg ASA dissolves? ([5]; Tris 1M, pH of medium 11.047, 5 mL): YES - | Time needed to dissolve (±) ([5]; Tris 1M, 5 mL): 3 min | pH after reconstitution ([5]; Tris 1M, 5 mL): 8.550 | 325 mg ASA dissolves? If yes, in 5 or 10 mL? ([5]; buffer — , strength —, purified water Ad 10 g): Yes - 10 mL | Time needed to dissolve (±) [5, 7]: 30 min | pH after reconstitution [5, 7]: 8.125
Compound: CC(=O)Oc1ccccc1C(=O)O [ASA, Acetyl salicylic acid]
Individual concentration at saturation (Cs), Aspirin (A) ([4]; Acidified ethanol): 143.526 mg/mL and 142.299 mg/mL and 141.593 mg/mL | Individual concentration at saturation (Cs), Aspirin (A) ([4]; Acidified tert-butyl alcohol): 48.73 mg/mL and 48.156 mg/mL and 48.453 mg/mL | Individual concentration at saturation (Cs), Aspirin (A) ([4]; Ethanol, without pH adjustment): 158.430 mg/mL and 163.027 mg/mL and 160.432 mg/mL | Individual concentration at saturation (Cs), Aspirin (A) ([4]; Tert-butyl alcohol, without pH adjustment): 22.768 mg/mL and 23.150 mg/mL and 22.889 mg/mL | solubility ([6]; above pH 5.5): above 100 mg/ml | solubility in water ([6]; water): about 0.3%

Reference: US12357644B2, “Acetyl salicylic acid composition for intravenous administration, its storage, production and use” (HYLORIS DEVELOPMENTS SA, priority 2022, dated 2025)
